{"source": "patent US11414465B2", "about": "“Plasma membrane intrinsic aquaporin for absorbing and transporting neonicotinoid insecticides, and coding gene and use therefor” (JIANGSU ACADEMY OF ARGRICULTURAL SCIENCES, priority 2020, dated 2022)", "key": {"Chinese cabbage plants": {"system": "Chinese cabbage plants", "settings": "2 mg/L compound in Hoagland nutrient solution, mercuric chloride or glycerol added, 48 h"}, "BraPIP1;1 gene": {"system": "BraPIP1;1 gene", "assay": "Response of BraPIP1;1 gene expression to thiamethoxam (quantitative RT-PCR)", "assay_type": "in vivo, Chinese cabbage", "settings": "10 mg/L thiamethoxam, p<0.001", "method": "Seedlings of Chinese cabbage with the same growth condition were put in a Hoagland's nutrient solution containing 10 mg/L thiamethoxam (the Hoagland's nutrient solution was purchased from Beijing Coolaber Technology Co., Ltd.), and treated in the Hoagland's nutrient solution for 6 and 24 hours (treatment group).\nAt the same time, a Hoagland's nutrient solution without thiamethoxam was used as the control group.\nTreated root and aboveground tissue RNA of two groups was extracted respectively, the 1st strand cDNA was obtained by reverse transcription as a template, specific expression primers were designed based on the cDNA sequence of BraPIP1;1, the Chinese cabbage Tublin was used as an internal reference, and the expression of the gene transcription level was detected by quantitative RT-PCR.\nThe quantification instrument is 7500 Real Time PCR System (Applied Biosystem), and a qPCRT system was configured according to the instructions of a kit 2×TSINGKE Master qPCR Mix (Tsingke Biotechnology Co., Ltd.). The PCR program is: pre-denaturation at 95° C. for 10 min, at 95° C. for 15 s, and at 60° C. for 20 s, for 40 cycles."}, "[1]": {"system": "Saccharomyces cerevisiae INVSc1 (pYES2-BraPIP1;1)", "assay": "Growth experiment of recombinant yeast strains under thiamethoxam stress", "assay_type": "cell-based", "settings": "10-1600 mg/L thiamethoxam, stress at 30° C. for 72 h, compared with wild strain (pYES2)", "text": "(§1) The BraPIP1;1 gene cloned in Example 1 was constructed into the Saccharomyces cerevisiae overexpression vector pYES2 (purchased from Clotech) referring to (He Lin, Jiang Lili, Wang Yucheng, Analysis of the stress tolerance of Tamarix thioredoxin peroxidase (ThPrx1) gene transformed into yeast, Journal of Northeast Forestry University, 2011, Vol. 39. No. 4, 101-104), and the constructed recombinant plasmid was named pYES2-BraPIP1;1. The pYES2-BraPIP1;1 and an empty vector pYES2 were transformed into Saccharomyces cerevisiae INVSc1 by lithium acetate precipitation. The recombinant yeasts were named INVSc1 (pYES2-BraPIP1;1) and INVSc1 (pYES2), respectively.\n(§2) Induction of recombinant strains: Single colonies of the control yeast INvsc1 (pYES2) and the recombinant yeast INvscl (pYES2-BraPIP1;1) were picked, inoculated in an SC-U liquid medium (with glucose of a final concentration of 2%) respectively, and incubated at 30° C. for 24 h on a shaker. The OD600 value is measured, and the amount of bacterial solution required is calculated such that the OD600 of bacteria in 10 ml of induction medium (SC-U+2% galactose) is 0.4. Induce expression was carried out at 30° C. for 24 h. The OD600 value was measured again, and the amount of bacterial solution required was calculated. […]"}, "[2]": {"system": "Saccharomyces cerevisiae INVSc1 (pYES2-BraPIP1;1)", "assay": "Thiamethoxam content experiment, recombinant yeast strain", "assay_type": "cell-based", "settings": "30° C., 6 h", "text": "as §1, §2"}, "[3]": {"system": "Saccharomyces cerevisiae INVSc1 (pYES2)", "assay": "Thiamethoxam content experiment, control yeast strain", "assay_type": "cell-based", "settings": "30° C., 6 h", "text": "as §1, §2"}, "[4]": {"system": "BraPIP1;1 overexpression Arabidopsis thaliana (BraPIP1;1#4, BraPIP1;1#6)", "assay": "Main root length of BraPIP1;1 transgenic Arabidopsis thaliana under thiamethoxam stress", "assay_type": "in vivo", "settings": "1/2MS media with 10 and 50 mg/L thiamethoxam, 20 days, compared with wild type Col-0", "text": "(§3) The BraPIP1;1 gene cloned in Example 1 was constructed into the plant binary overexpression vector pCAMBIA2301 (purchased from Clotech). By the Agrobacterium tumefaciens-mediated method (Valvekens, D., van Montagu, M., and Lijsebettens, M. V. (1988). Agrobacterium tumefaciens-mediated transformation of Arabidopsis thaliana root explants by using kanamycin selection. Proc. Natl. Acad. Sci. USA 85, 5536-5540.), the inflorescence of wild-type Arabidopsis thaliana Col-0 (purchased from ATCC, USA) was infected with the constructed overexpression vector. Through screening (resistance pure line seedlings were screened on a ½MS plate containing 50 μg/mL kanamycin), BraPIP1;1 overexpression Arabidopsis thaliana pure line materials BraPIP1;1#4 and BraPIP1;1#6 were identified and obtained.\nThe pure line seeds of the BraPIP1;1#4 and BraPIP1;1#6 obtained in the previous transgenic experiment and a wild-type Col-0 material (WT) were germinated on a ½MS medium respectively, and then transferred to ½MS media (Qingdao Hopebio Co., Ltd., Item No. HB8469-12, PH=5.6) containing 10 and 50 mg/L thiamethoxam respectively. After 20 days, the growth of the seedlings was observed and the main root length was measured."}, "[5]": {"system": "BraPIP1;1 overexpression Arabidopsis thaliana", "assay": "Thiamethoxam content of BraPIP1;1 transgenic Arabidopsis thaliana grown in soil", "assay_type": "in vivo", "settings": "soil containing 10 mg/L thiamethoxam, 20 days, compared with wild plant", "text": "as §3\nIn addition, germinated seedlings of the same size were transplanted into soil containing 10 mg/L thiamethoxam, and after 20 days of culture, the root and aboveground samples of the transgenic Arabidopsis thaliana and the control were harvested respectively, washed with deionized water, and weighed."}}, "data": [{"smiles": "CN1CCCC1c1cccnc1", "note": "(stereo not drawn) [nicotine]", "values": [{"measurement": "content of the compound in the plants after the water channel inhibitors were added", "setting": "Chinese cabbage plants", "value": "did not change significantly"}]}, {"smiles": "CN1COCN(Cc2cnc(Cl)s2)/C1=N\\[N+](=O)[O-]", "note": "[thiamethoxam]", "values": [{"measurement": "expression abundance of BraPIP1;1 in the aboveground parts vs control", "setting": "BraPIP1;1 gene; 6 hours", "value": "significantly increased"}, {"measurement": "expression abundance of BraPIP1;1 in the roots vs control", "setting": "BraPIP1;1 gene; 6 hours", "value": "significantly increased"}, {"measurement": "expression abundance of BraPIP1;1 in the aboveground parts vs control", "setting": "BraPIP1;1 gene; 24 hours", "value": "significantly increased"}, {"measurement": "growth of transgenic strain (pYES2-BraPIP1;1) with thiamethoxam", "setting": "[1]", "value": "grows weaker than the wild strain"}, {"measurement": "thiamethoxam content of the recombinant strain", "setting": "[2]; 10 mg/L thiamethoxam", "value": 0.0078, "unit": "ng/OD"}, {"measurement": "thiamethoxam content of the recombinant strain (pYES2-BraPIP1;1)", "setting": "[2]; 100 mg/L thiamethoxam", "value": 0.021, "unit": "ng/OD"}, {"measurement": "thiamethoxam content of the control strain", "setting": "[3]; 10 mg/L thiamethoxam", "value": 0.0038, "unit": "ng/OD"}, {"measurement": "thiamethoxam content of the control strain (pYES2)", "setting": "[3]; 100 mg/L thiamethoxam", "value": 0.011, "unit": "ng/OD"}, {"measurement": "main root length of the transgenic strain", "setting": "[4]", "value": "shorter than that of the wild type"}, {"measurement": "thiamethoxam content of the aboveground parts of the transgenic plant", "setting": "[5]", "value": "higher than that of the wild plant"}, {"measurement": "thiamethoxam content of the roots of the transgenic plant", "setting": "[5]", "value": "higher than that of the wild plant"}]}]}
